In the assay the test system is purified trypsin (PT) from the pyloric caeca of Asian seabass. Briefly: 4-nitroaniline release, A410; Lineweaver-Burk. It is filed as biochemical, Lates calcarifer. The conditions noted are these: 30 °C, optimal pH (8.5) per Table 3 footnote; free enzyme; b65 text prints 0.0078 (no unit).

In the case of `NC(N)=NCCCC(NC(=O)c1ccccc1)C(=O)Nc1ccc([N+](=O)[O-])cc1` (stereo not shown) [BAPNA], the Km worked out at 78 µM.

One may read the Km as the concentration of substrate that gives half-maximal velocity.

Values taken from publication PMC10418725, “Trypsin from Pyloric Caeca of Asian Seabass: Purification, Characterization, and Its Use in the Hydrolysis of Acid-Soluble Collagen” (Foods, 2023).
